Toxic doses and inconclusive results are not listed. Cut-off read from the data, not from the text of the source: active = T/C of 150% or more; inactive = T/C below 125%.
Tested on: L1210 leukemia ip in BDF1 mice, survival T/C
Experiment: NCI In Vivo Anticancer Drug Screen. Data for tumor model L1210 Leukemia (intraperitoneal) in B6D2F1 (BDF1) mice
Conditions: endpoint: mean survival time, higher = longer survival
In short: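 Survival endpoint. Drug-treated group vs vehicle group, expressed as T divided by C. Tumor passaged by transplantation.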

[1] = dose: 100.0 mg/kg/injection, schedule: Q01DX009 (ip), vehicle: Klucel (hydroxypropylcellulose) (HPC)
[2] = dose: 200.0 mg/kg/injection, schedule: Q01DX009 (ip), vehicle: Klucel (hydroxypropylcellulose) (HPC)
[3] = dose: 400.0 mg/kg/injection, schedule: Q01DX009 (ip), vehicle: Klucel (hydroxypropylcellulose) (HPC)
[4] = dose: 100.0 mg/kg/injection, schedule: Q04DX003 (ip), vehicle: Klucel (hydroxypropylcellulose) (HPC)
[5] = dose: 200.0 mg/kg/injection, schedule: Q04DX003 (ip), vehicle: Klucel (hydroxypropylcellulose) (HPC)
[6] = dose: 400.0 mg/kg/injection, schedule: Q04DX003 (ip), vehicle: Klucel (hydroxypropylcellulose) (HPC)
[7] = dose: 100.0 mg/kg/injection, schedule: Q01DX001 (ip), vehicle: Klucel (hydroxypropylcellulose) (HPC)
[8] = dose: 200.0 mg/kg/injection, schedule: Q01DX001 (ip), vehicle: Klucel (hydroxypropylcellulose) (HPC)
[9] = dose: 100.0 mg/kg/injection, schedule: Q04DX002 (ip), vehicle: Klucel (hydroxypropylcellulose) (HPC)
[10] = dose: 200.0 mg/kg/injection, schedule: Q04DX002 (ip), vehicle: Klucel (hydroxypropylcellulose) (HPC)
[11] = dose: 400.0 mg/kg/injection, schedule: Q04DX002 (ip), vehicle: Klucel (hydroxypropylcellulose) (HPC)
[12] = dose: 100.0 mg/kg/injection, schedule: Q01DX001 (ip), vehicle: saline
[13] = dose: 200.0 mg/kg/injection, schedule: Q01DX001 (ip), vehicle: saline
[14] = dose: 100.0 mg/kg/injection, schedule: Q04DX003 (ip), vehicle: saline with Tween-80
[15] = dose: 200.0 mg/kg/injection, schedule: Q04DX003 (ip), vehicle: saline with Tween-80
[16] = dose: 400.0 mg/kg/injection, schedule: Q01DX001 (ip), vehicle: saline
[17] = dose: 50.0 mg/kg/injection, schedule: Q01DX009 (ip), vehicle: saline
[18] = dose: 100.0 mg/kg/injection, schedule: Q01DX009 (ip), vehicle: saline
[19] = dose: 100.0 mg/kg/injection, schedule: Q04DX003 (ip), vehicle: saline
[20] = dose: 200.0 mg/kg/injection, schedule: Q04DX003 (ip), vehicle: saline
[21] = dose: 400.0 mg/kg/injection, schedule: Q04DX003 (ip), vehicle: saline

Measured: T/C

Clc1ccc(CSc2nc3ccccc3[nH]2)cc1
inactive: [1] 94 % of control | [2] 103 % of control | [3] 103 % of control

CCCCCCC(C)OB(OC(C)CCCCCC)OC(C)CCCCCC (centres undefined)
inactive: [4] 103 % of control | [5] 95 % of control | [6] 93 % of control

CCOC(=O)/C=C(\C)c1ccc([N+](=O)[O-])cc1
inactive: [7] 107 % of control | [8] 100 % of control | dose: 400.0 mg/kg/injection, schedule: Q01DX001 (ip), vehicle: Klucel (hydroxypropylcellulose) (HPC) 97 % of control

CCOC(=O)CNc1cccc(Br)c1
inactive: [9] 107 % of control | [10] 100 % of control | [11] 103 % of control

COc1ccc(/C=N/NC(=O)Nc2ccccc2)cc1OC
inactive: [1] 98 % of control | [2] 89 % of control | [3] 93 % of control

CC1CC[N-]CC1.CC1CC[N-]CC1.CC1CC[N-]CC1.[Cl][Cr]([Cl])[Cl]
inactive: dose: 100.0 mg/kg/injection, schedule: Q04DX003 (ip), vehicle: other 98 % of control | dose: 200.0 mg/kg/injection, schedule: Q04DX003 (ip), vehicle: other 95 % of control | dose: 400.0 mg/kg/injection, schedule: Q04DX003 (ip), vehicle: other 97 % of control

C=CCOc1cc[n+]([O-])cc1
inactive: [12] 100 % of control | [13] 105 % of control

O=Cc1ccc2cccnc2c1O
inactive: dose: 50.0 mg/kg/injection, schedule: Q01DX001 (ip), vehicle: saline 114 % of control | [12] 108 % of control | [13] 93 % of control

Cc1cc2nc3[nH]c(=O)c4c(n3c2cc1C)CCC4
inactive: dose: 50.0 mg/kg/injection, schedule: Q04DX002 (ip), vehicle: saline 87 % of control | dose: 100.0 mg/kg/injection, schedule: Q04DX002 (ip), vehicle: saline 108 % of control | dose: 200.0 mg/kg/injection, schedule: Q04DX002 (ip), vehicle: saline 112 % of control

O=C(CCC(=O)Nc1ccccc1)Nc1ccccc1
inactive: dose: 100.0 mg/kg/injection, schedule: Q01DX001 (ip), vehicle: carboxymethylcellulose (CMC) 96 % of control | dose: 200.0 mg/kg/injection, schedule: Q01DX001 (ip), vehicle: carboxymethylcellulose (CMC) 102 % of control | dose: 400.0 mg/kg/injection, schedule: Q01DX001 (ip), vehicle: carboxymethylcellulose (CMC) 102 % of control

O=[N+]([O-])c1cccc(/C=C/c2ccc(S(=O)(=O)F)cc2)c1
inactive: [14] 95 % of control | [15] 90 % of control

CN(C)Cc1c[nH]c2ncccc12
inactive: dose: 6.25 mg/kg/injection, schedule: Q04DX003 (ip), vehicle: saline with Tween-80 98 % of control | dose: 12.5 mg/kg/injection, schedule: Q04DX003 (ip), vehicle: saline with Tween-80 96 % of control | dose: 25.0 mg/kg/injection, schedule: Q04DX003 (ip), vehicle: saline with Tween-80 102 % of control

FN1C(F)(F)C(F)(F)C(F)(F)C(F)(F)C1(F)F
inactive: dose: 100.0 mg/kg/injection, schedule: Q01DX001 (ip), vehicle: acetone 100 % of control | dose: 200.0 mg/kg/injection, schedule: Q01DX001 (ip), vehicle: acetone 87 % of control | dose: 400.0 mg/kg/injection, schedule: Q01DX001 (ip), vehicle: acetone 92 % of control

CCCCC(=O)N/N=C/c1ccc(Br)cc1
inactive: [12] 100 % of control | [13] 97 % of control | [16] 102 % of control

COc1cc(C=O)ccc1OC(=O)Nc1cc([N+](=O)[O-])ccc1F
inactive: [1] 97 % of control | [2] 93 % of control | [3] 92 % of control

S=C(Nc1ccc(Cl)cc1)Nc1ccc(Cc2ccc(NC(=S)Nc3ccc(Cl)cc3)cc2)cc1
inactive: [9] 113 % of control | [10] 106 % of control | [11] 92 % of control

O=[N+]([O-])c1cccc(/C(Cl)=C/CCl)c1
inactive: dose: 50.0 mg/kg/injection, schedule: Q01DX001 (ip), vehicle: Klucel (hydroxypropylcellulose) (HPC) 98 % of control | [7] 101 % of control | [8] 97 % of control

COc1ccc([N+](=O)[O-])cc1N
inactive: [4] 101 % of control | [5] 104 % of control | [6] 90 % of control

CN(C)c1ncccc1O
inactive: [12] 95 % of control | [13] 101 % of control | [16] 106 % of control

CC(C)=CCC(C#N)(CCN(C)C)c1ccc2ccccc2c1 (centres undefined)
inactive: dose: 25.0 mg/kg/injection, schedule: Q01DX009 (ip), vehicle: saline 95 % of control | [17] 97 % of control | [18] 95 % of control

CN(C)CCOC(=O)c1cccc(CCl)c1CCl
inactive: dose: 87.5 mg/kg/injection, schedule: Q01DX009 (ip), vehicle: saline 106 % of control

OCC(Cl)(Cl)Cl
inactive: [19] 104 % of control | [20] 96 % of control | [21] 107 % of control

CCCCCCCCCCCCCCCCCCN(c1ccc(C(=O)OCC)cc1)S(=O)(=O)c1ccc(C)cc1
inactive: [17] 93 % of control | [18] 93 % of control | [19] 97 % of control | dose: 200.0 mg/kg/injection, schedule: Q01DX009 (ip), vehicle: saline 90 % of control | [20] 94 % of control | [21] 94 % of control

CCOC(=O)C(=O)Nc1ccc([N+](=O)[O-])cc1
inactive: [14] 87 % of control | [15] 98 % of control | dose: 400.0 mg/kg/injection, schedule: Q04DX003 (ip), vehicle: saline with Tween-80 87 % of control

CCCNC(=O)c1cccc2c1-c1ccccc1C2=O
inactive: dose: 100.0 mg/kg/injection, schedule: Q01DX001 (ip), vehicle: other 93 % of control | dose: 200.0 mg/kg/injection, schedule: Q01DX001 (ip), vehicle: other 93 % of control | dose: 400.0 mg/kg/injection, schedule: Q01DX001 (ip), vehicle: other 87 % of control

Cc1cnc2c(N)nc(N)nc2n1
inactive: [9] 110 % of control | [10] 98 % of control | [11] 94 % of control

CCOC(=O)/C(O)=C/c1nc2ccccc2nc1C
inactive: [4] 105 % of control | [5] 96 % of control | [6] 99 % of control

N#CC(C#N)=C1SCS1
inactive: dose: 6.25 mg/kg/injection, schedule: Q04DX002 (ip), vehicle: saline with Tween-80 103 % of control | dose: 12.5 mg/kg/injection, schedule: Q04DX002 (ip), vehicle: saline with Tween-80 111 % of control | dose: 25.0 mg/kg/injection, schedule: Q04DX002 (ip), vehicle: saline with Tween-80 114 % of control

COc1nc(N)nc2c1ncn2C1OC(CO)C(O)C1O (centres undefined)
inactive: dose: 75.0 mg/kg/injection, schedule: Q01DX001 (ip), vehicle: saline 102 % of control | dose: 150.0 mg/kg/injection, schedule: Q01DX001 (ip), vehicle: saline 93 % of control

COc1ccc(C(=O)NC(=S)Nc2ccc(I)cc2)cc1
inactive: [1] 98 % of control | [4] 89 % of control | [2] 98 % of control | [5] 89 % of control | [3] 91 % of control | [6] 94 % of control

Cc1ccc(OCCO)cc1C
inactive: [9] 120 % of control | [10] 92 % of control | [11] 92 % of control

Reference: PubChem BioAssay AID248 (DTP/NCI, 2004)
